Data from ChEMBL document CHEMBL1139763, “Pyrrolidines as potent functional agonists of the human melanocortin-4 receptor” (Bioorg Med Chem Lett, 2007).

Columns and labels:
Melanocortin receptor 4 [1] = biological target: T1, Melanocortin receptor 4 (Homo sapiens, UniProt P32245); assay: Displacement of [125I]NDP-MSH from human MC4R expressed in HEK293 cells; assay type: cell-based
Melanocortin receptor 4 [2] = biological target: T1, Melanocortin receptor 4; assay: Agonist activity at human MC4R expressed in HEK293 cells assessed as cAMP accumulation; assay type: functional, cell-based
Melanocortin receptor 4 [3] = biological target: T1, Melanocortin receptor 4; assay: Intrinsic activity at human MC4R expressed in HEK293 cells assessed as cAMP accumulation relative to alphaMSH; assay type: functional, cell-based

T1 sequence (P32245 whole entry): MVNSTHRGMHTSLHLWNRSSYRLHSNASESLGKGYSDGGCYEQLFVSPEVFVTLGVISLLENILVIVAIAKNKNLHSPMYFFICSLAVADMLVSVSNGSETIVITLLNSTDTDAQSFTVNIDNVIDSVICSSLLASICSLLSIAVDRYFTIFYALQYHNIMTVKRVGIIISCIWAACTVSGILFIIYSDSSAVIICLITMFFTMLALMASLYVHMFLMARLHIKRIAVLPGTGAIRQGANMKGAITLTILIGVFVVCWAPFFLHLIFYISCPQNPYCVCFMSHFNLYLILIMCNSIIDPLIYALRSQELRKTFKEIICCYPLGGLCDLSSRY

Row | Compound | Ki (Melanocortin receptor 4 [1]) [nM] | EC50 (Melanocortin receptor 4 [2]) [nM] | Intrinsic activity (Melanocortin receptor 4 [3]) [%]
1 | CNCCNCc1ccccc1N1CCN(C(=O)[C@@H]2CN(C(C)C)C[C@H]2c2ccc(Cl)cc2)CC1 | 270 |  | 
2 | CC(C)N1C[C@@H](C(=O)N2CCN(c3ccccc3CNc3ccccc3N)CC2)[C@H](c2ccc(Cl)cc2)C1 | 1400 |  | 
3 | CC(C)N1C[C@@H](C(=O)N2CCN(c3ccccc3CNC3CNC3)CC2)[C@H](c2ccc(Cl)cc2)C1 | 520 |  | 
4 | CC(C)C[C@H](NC(=O)CN(C)C)c1cc(C(F)(F)F)ccc1N1CCN(C(=O)[C@@H]2CN(C(C)C)C[C@H]2c2ccc(Cl)cc2)CC1 | 17.3 | 52 | 99
5 | CC(C)N1C[C@@H](C(=O)N2CCN(c3ccccc3CNS(C)(=O)=O)CC2)[C@H](c2ccc(Cl)cc2)C1 | 1700 |  | 
6 | CC(C)N1C[C@@H](C(=O)N2CCN(c3ccccc3CNc3cccnc3)CC2)[C@H](c2ccc(Cl)cc2)C1 | 1600 |  | 
7 | CC(C)C[C@H](NC(=O)CCN)c1cc(C(F)(F)F)ccc1N1CCN(C(=O)[C@@H]2CN(C(C)C)C[C@H]2c2ccc(Cl)cc2)CC1 | 8.7 | 4.6 | 95
8 | Cc1ccc(N2CCN(C(=O)[C@@H]3CN(C(C)C)C[C@H]3c3ccc(Cl)cc3)CC2)c([C@@H](N)C(C)C)c1 | 12 | 105 | 99
9 | CC(C)N1C[C@@H](C(=O)N2CCN(c3ccccc3CNC3CCNCC3)CC2)[C@H](c2ccc(Cl)cc2)C1 | 190 |  | 
10 | CCN(CC)Cc1ccccc1N1CCN(C(=O)[C@@H]2CN(C(C)C)C[C@H]2c2ccc(Cl)cc2)CC1 | 1200 |  | 
11 | CC(C)N1C[C@@H](C(=O)N2CCN(c3ccccc3Cn3cncn3)CC2)[C@H](c2ccc(Cl)cc2)C1 | 320 |  | 
12 | CC(C)CN(Cc1ccccc1N1CCN(C(=O)[C@@H]2CN(C(C)C)C[C@H]2c2ccc(Cl)cc2)CC1)CC(C)C | 1100 |  | 
13 | CC(C)C[C@H](NC(=O)[C@@H](C)N)c1cc(C(F)(F)F)ccc1N1CCN(C(=O)[C@@H]2CN(C(C)C)C[C@H]2c2ccc(Cl)cc2)CC1 | 4.9 | 31 | 103
14 | CC(C)N1C[C@@H](C(=O)N2CCN(c3ccccc3CN3CCCCC3)CC2)[C@H](c2ccc(Cl)cc2)C1 | 950 |  | 
15 | CC(C)N1C[C@@H](C(=O)N2CCN(c3ccccc3Cn3cccn3)CC2)[C@H](c2ccc(Cl)cc2)C1 | 490 |  | 
16 | CC(C)C[C@H](NC(=O)C1CNC1)c1cc(C(F)(F)F)ccc1N1CCN(C(=O)[C@@H]2CN(C(C)C)C[C@H]2c2ccc(Cl)cc2)CC1 | 18 | 6.6 | 80
17 | Cc1cncn1Cc1ccccc1N1CCN(C(=O)[C@@H]2CN(C(C)C)C[C@H]2c2ccc(Cl)cc2)CC1 | 250 |  | 
18 | Cc1ccc(N2CCN(C(=O)[C@@H]3CN(C(C)C)C[C@H]3c3ccc(Cl)cc3)CC2)c([C@@H](NC(=O)CN(C)C)C(C)C)c1 | 7.1 | 170 | 100
19 | CC(C)N1C[C@@H](C(=O)N2CCN(c3ccccc3CN(C)C3CNC3)CC2)[C@H](c2ccc(Cl)cc2)C1 | 240 |  | 
20 | CC(C)N1C[C@@H](C(=O)N2CCN(c3ccccc3Cn3cnnc3)CC2)[C@H](c2ccc(Cl)cc2)C1 | 580 |  | 
21 | CC(C)[C@H](NC(=O)CCN)c1cccc(F)c1N1CCN(C(=O)[C@@H]2CN(C(C)C)C[C@H]2c2ccc(Cl)cc2)CC1 | 13 | 6.9 | 100
22 | CNCC(=O)N[C@H](c1cccc(F)c1N1CCN(C(=O)[C@@H]2CN(C(C)C)C[C@H]2c2ccc(Cl)cc2)CC1)C(C)C | 11 | 16 | 114
23 | CC(C)CN(Cc1ccccc1N1CCN(C(=O)[C@@H]2CN(C(C)C)C[C@H]2c2ccc(Cl)cc2)CC1)C(=O)CCN | 450 |  | 
24 | CC(=O)N[C@H](c1cc(C)ccc1N1CCN(C(=O)[C@@H]2CN(C(C)C)C[C@H]2c2ccc(Cl)cc2)CC1)C(C)C | 47 |  | 35
25 | CC(C)C[C@H](NS(C)(=O)=O)c1cc(C(F)(F)F)ccc1N1CCN(C(=O)[C@@H]2CN(C(C)C)C[C@H]2c2ccc(Cl)cc2)CC1 | 87 | 450 | 96

Row | Compound | Ki (Melanocortin receptor 4 [1]) [nM] | EC50 (Melanocortin receptor 4 [2]) [nM] | Intrinsic activity (Melanocortin receptor 4 [3]) [%]
26 | CC(C)C[C@H](NC(=O)CCN(C)C)c1cc(C(F)(F)F)ccc1N1CCN(C(=O)[C@@H]2CN(C(C)C)C[C@H]2c2ccc(Cl)cc2)CC1 | 10 | 91 | 76
27 | CC(C)N1C[C@@H](C(=O)N2CCN(c3ccccc3CN)CC2)[C@H](c2ccc(Cl)cc2)C1 | 1100 |  | 
28 | CC(C)CNCc1ccccc1N1CCN(C(=O)[C@@H]2CN(C(C)C)C[C@H]2c2ccc(Cl)cc2)CC1 | 510 |  | 
29 | CC(C)C[C@H](N)c1cc(C(F)(F)F)ccc1N1CCN(C(=O)[C@@H]2CN(C(C)C)C[C@H]2c2ccc(Cl)cc2)CC1 | 26 | 1100 | 94
30 | CC(C)N1C[C@@H](C(=O)N2CCN(c3ccccc3CN(C)C)CC2)[C@H](c2ccc(Cl)cc2)C1 | 1200 |  | 
31 | CNCC(=O)N[C@@H](CC(C)C)c1cc(C(F)(F)F)ccc1N1CCN(C(=O)[C@@H]2CN(C(C)C)C[C@H]2c2ccc(Cl)cc2)CC1 | 7.7 | 67 | 63
32 | CC(C)C[C@H](NC(=O)[C@H](C)N)c1cc(C(F)(F)F)ccc1N1CCN(C(=O)[C@@H]2CN(C(C)C)C[C@H]2c2ccc(Cl)cc2)CC1 | 47 | 210 | 104
33 | COCCN(C)Cc1ccccc1N1CCN(C(=O)[C@@H]2CN(C(C)C)C[C@H]2c2ccc(Cl)cc2)CC1 | 320 |  | 
34 | Cc1ccc(N2CCN(C(=O)[C@@H]3CN(C(C)C)C[C@H]3c3ccc(Cl)cc3)CC2)c([C@H](C(C)C)N(C)C)c1 | 13 |  | 44
35 | CC(C)N1C[C@@H](C(=O)N2CCN(c3ccccc3Cn3ccnn3)CC2)[C@H](c2ccc(Cl)cc2)C1 | 420 |  | 
36 | CC(C)N1C[C@@H](C(=O)N2CCN(c3ccccc3CNCCN)CC2)[C@H](c2ccc(Cl)cc2)C1 | 230 |  | 
37 | CC(C)C[C@H](NC(=O)CN)c1cc(C(F)(F)F)ccc1N1CCN(C(=O)[C@@H]2CN(C(C)C)C[C@H]2c2ccc(Cl)cc2)CC1 | 8.9 | 44 | 115
38 | CC(C)N1C[C@@H](C(=O)N2CCN(c3ccccc3CN3CCNCC3)CC2)[C@H](c2ccc(Cl)cc2)C1 | 360 |  | 
39 | CC(C)N1C[C@@H](C(=O)N2CCN(c3ccccc3Cn3ccnc3)CC2)[C@H](c2ccc(Cl)cc2)C1 | 220 | 320 | 52
40 | CC(C)N1C[C@@H](C(=O)N2CCN(c3ccccc3C#N)CC2)[C@H](c2ccc(Cl)cc2)C1 | 4800 |  | 
41 | CC(C)N1C[C@@H](C(=O)N2CCN(c3ccccc3CN3CCCC3)CC2)[C@H](c2ccc(Cl)cc2)C1 | 550 |  | 
42 | Cc1nccn1Cc1ccccc1N1CCN(C(=O)[C@@H]2CN(C(C)C)C[C@H]2c2ccc(Cl)cc2)CC1 | 280 |  | 
43 | CC(C)[C@H](N)c1cccc(F)c1N1CCN(C(=O)[C@@H]2CN(C(C)C)C[C@H]2c2ccc(Cl)cc2)CC1 | 21 | 270 | 68
44 | COc1ccccc1N1CCN(C(=O)[C@@H]2CN(C(C)C)C[C@H]2c2ccc(Cl)cc2)CC1 | 520 |  | 
45 | CC(C)N1C[C@@H](C(=O)N2CCN(c3ccccc3CN3CCN(C)CC3)CC2)[C@H](c2ccc(Cl)cc2)C1 | 840 |  | 
46 | CC(C)N1C[C@@H](C(=O)N2CCN(c3ccccc3CN3CCC(N)CC3)CC2)[C@H](c2ccc(Cl)cc2)C1 | 92 | 390 | 40
47 | Cc1ccc(N2CCN(C(=O)[C@@H]3CN(C(C)C)C[C@H]3c3ccc(Cl)cc3)CC2)c([C@@H](NC(=O)CCN(C)C)C(C)C)c1 | 4.7 | 16 | 102
48 | CC(C)N1C[C@@H](C(=O)N2CCN(c3ccccc3C=O)CC2)[C@H](c2ccc(Cl)cc2)C1 | 1150 |  | 
49 | CC(C)[C@H](NC(=O)[C@@H](C)N)c1cccc(F)c1N1CCN(C(=O)[C@@H]2CN(C(C)C)C[C@H]2c2ccc(Cl)cc2)CC1 | 4.4 | 9 | 70
